Among the data in patent publication US8691815B2, “Substituted oxindole derivatives, drugs containing said derivatives and the use thereof” (AbbVie Deutschland GmbH & Co. KG, priority 2005, dated 2014) are Ki values, retold here.

Where a name gives a salt, the structure may show the parent alone.

The target of the test is T1, human vasopressin V1b receptor (Homo sapiens, UniProt P47901).
T1 construct: expressed in transfected cells; host or cells: CHO-K1 (cell line hV1b-3H2_CHO), membrane preparation
T1 sequence (P47901 1-424): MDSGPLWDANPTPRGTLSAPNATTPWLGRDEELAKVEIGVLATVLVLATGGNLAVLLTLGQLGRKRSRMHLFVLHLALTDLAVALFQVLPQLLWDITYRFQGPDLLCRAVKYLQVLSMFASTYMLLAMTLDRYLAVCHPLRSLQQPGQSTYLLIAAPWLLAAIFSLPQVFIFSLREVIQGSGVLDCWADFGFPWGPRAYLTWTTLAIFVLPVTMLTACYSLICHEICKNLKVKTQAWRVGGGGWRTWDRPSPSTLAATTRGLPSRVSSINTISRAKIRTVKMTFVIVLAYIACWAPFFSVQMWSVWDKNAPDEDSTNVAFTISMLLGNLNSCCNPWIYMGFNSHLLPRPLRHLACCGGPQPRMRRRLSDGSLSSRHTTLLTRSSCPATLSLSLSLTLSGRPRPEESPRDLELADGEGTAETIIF
As to the kind of experiment: Vasopressin V1b receptor binding assay. As to conditions: membranes from CHO-K1 cells with stably expressed human V1b receptors, displacement of 1.5 nM 3H-AVP. Here is the method: Vasopressin V1b Receptor Binding Assay:
The test substances were dissolved in a concentration of 10^−2 M in DMSO (dimethyl sulfoxide) and further diluted to 5×10^−4 M to 5×10^−9 M in DMSO. This series of DMSO predilutions was diluted 1:10 with assay buffer. The substance concentration was again diluted 1:5 in the assay mixture (2% DMSO in the mixture).
The membrane pellet was again homogenized and centrifuged as described and then taken up in 50 mM Tris-HCl, pH 7.4, homogenized and stored in aliquots frozen in liquid nitrogen at −190° C.
The incubation buffer was: 50 mM Tris, 10 mM MgCl2, 0.1% BSA, pH 7.4.
The nonspecific binding was determined with 1 uM AVP (Bachem # H1780). All determinations were carried out as triplicate determinations. After incubation (60 minutes at room temperature), the free radioligand was removed by vacuum filtration (Skatron cell harvester 7000) through Whatman GF/B glass fiber filter mats, and the filters were transferred into scintillation vials. The liquid scintillation measurement took place in a Tricarb model 2000 or 2200CA instrument (Packard). Conversion of the measured cpm into dpm was carried out with the aid of a standard quench series.
The binding parameters were calculated by nonlinear regression in SAS.
One may read the Ki as a dissociation constant, usually derived from enzyme kinetics or from competition with a known ligand. Low readings indicate tighter binding, high ones weaker binding. For `COc1cc(CN2CCOCC2)ccc1C1(N2CCC[C@H]2C(=O)N(C)C)C(=O)N(S(=O)(=O)c2ccc(C#N)cc2)c2ccc(Cl)cc21` (stereo partly drawn) [Example 81, (S)-1-[5-Chloro-1-(4-cyanobenzenesulfonyl)-3-(2-methoxy-4-morpholin-4-ylmethyl-phenyl)-2-oxo-2,3-dihydro-1H-indol-3-yl]pyrrolidine-2-dimethylcarboxamide, trifluoroacetic acid salt], the Ki is 1 to 10 nM.

The molecule `COc1cc(CN2CCCC2)ccc1C1(N2CCC[C@H]2C(=O)N(C)C)C(=O)N(S(=O)(=O)c2ccc(Cl)cc2)c2ccc(Cl)cc21` (stereo partly drawn) [Example 4, (S)-1-[5-Chloro-1-(4-chlorobenzenesulfonyl)-3-(2-methoxy-4-pyrrolidin-1-ylmethyl-phenyl)-2-oxo-2,3-dihydro-1H-indol-3-yl]pyrrolidine-2-dimethylcarboxamide, trifluoroacetic acid salt] returned a Ki of less than 1 nM.

The molecule `COc1ccc(S(=O)(=O)N2C(=O)C(c3cc(CN(C)CCN(C)C)ccc3OC)(N3CCC[C@H]3C(=O)N(C)C)c3cc(Cl)ccc32)cc1` (stereo partly drawn) [Example 22, (S)-1-[5-Chloro-3-(5-{[(2-dimethylaminoethyl)methylamino]methyl}-2-methoxy-phenyl)-1-(4-methoxybenzenesulfonyl)-2-oxo-2,3-dihydro-1H-indol-3-yl]pyrrolidine-2-dimethylcarboxamide, trifluoroacetic acid salt] gave a Ki of less than 1 nM.

Consider “(S)-1-[3-(4-Aminomethyl-2-methoxyphenyl)-5-chloro-1-(4-cyanobenzenesulfonyl)-2-oxo-2,3-dihydro-1H-indol-3-yl]pyrrolidine-2-dimethylcarboxamide, trifluoroacetic acid salt [Example 76]”, for which the Ki lay in the range of 1 to 10 nM.

In the case of `COc1ccc(CN2CCCC2)cc1C1(N2CCC[C@H]2C(=O)N(C)C)C(=O)N(S(=O)(=O)c2ccc(C#N)cc2)c2ccc(Cl)cc21` (stereo partly drawn) [Example 96, (S)-1-[5-Chloro-1-(4-cyanobenzenesulfonyl)-3-(2-methoxy-5-pyrrolidin-1-ylmethyl-phenyl)-2-oxo-2,3-dihydro-1H-indol-3-yl]pyrrolidine-2-dimethylcarboxamide], the Ki was less than 1 nM.

Molecule `COCCN(C)Cc1ccc(C2(N3CCC[C@H]3C(=O)N(C)C)C(=O)N(S(=O)(=O)c3ccc(OC)cc3OC)c3ccc(Cl)cc32)c(OC)c1` (stereo partly drawn) [Example 31, (S)-1-[5-Chloro-1-(2,4-dimethoxybenzenesulfonyl)-3-(2-methoxy-4-{[(2-methoxy-ethyl)methylamino]methyl}phenyl)-2-oxo-2,3-dihydro-1H-indol-3-yl]pyrrolidine-2-dimethylcarboxamide] came in with a Ki of 1 to 10 nM.

In turn, “(S)-2-{[5-Chloro-1-(2,4-dimethoxybenzenesulfonyl)-3-(4-dimethylaminomethyl-2-methoxyphenyl)-2-oxo-2,3-dihydro-1H-indol-3-yl]methylamino}-N,N-dimethyl-propionamide [Example 13]” showed a Ki of 1 to 10 nM.

For `COc1ccc(S(=O)(=O)N2C(=O)C(c3ccc(CN4CCC4)cc3OC)(N3CCC[C@H]3C(=O)N(C)C)c3cc(Cl)ccc32)cc1` (stereo partly drawn) [Example 87, (S)-1-[3-(4-Azetidin-1-ylmethyl-2-methoxyphenyl)-5-chloro-1-(4-methoxybenzene-sulfonyl)-2-oxo-2,3-dihydro-1H-indol-3-yl]pyrrolidine-2-dimethylcarboxamide, trifluoroacetic acid salt], the inhibition constant (Ki) was less than 1 nM.

The molecule `COc1cc(CN(C)C)ccc1C1(N2CCC[C@H]2C(=O)N(C)C)C(=O)N(S(=O)(=O)c2ccc(C#N)cc2)c2ccc(Cl)cc21` (stereo partly drawn) [Example 72, (S)-1-[5-Chloro-1-(4-cyanobenzenesulfonyl)-3-(4-dimethylaminomethyl-2-methoxy-phenyl)-2-oxo-2,3-dihydro-1H-indol-3-yl]pyrrolidine-2-dimethylcarboxamide, trifluoroacetic acid salt] returned a Ki of 1 to 10 nM.

In turn, `COc1ccc(CNC(C)C)cc1C1(N2CCC[C@H]2C(=O)N(C)C)C(=O)N(S(=O)(=O)c2ccc(C#N)cc2)c2ccc(Cl)cc21` (stereo partly drawn) [Example 101, (S)-1-[5-Chloro-1-(4-cyanobenzenesulfonyl)-3-(5-isopropylaminomethyl-2-methoxy-phenyl)-2-oxo-2,3-dihydro-1H-indol-3-yl]pyrrolidine-2-dimethylcarboxamide, trifluoroacetic acid salt] gave a Ki of less than 1 nM.

For `COc1ccc(S(=O)(=O)N2C(=O)C(c3cc(CN(C)CCCN(C)C)ccc3OC)(N3CCC[C@H]3C(=O)N(C)C)c3cc(Cl)ccc32)c(OC)c1` (stereo partly drawn) [Example 30, (S)-1-[5-Chloro-1-(2,4-dimethoxybenzenesulfonyl)-3-(5-{[(3-dimethylaminopropyl)-methylamino]methyl}-2-methoxyphenyl)-2-oxo-2,3-dihydro-1H-indol-3-yl]pyrrolidine-2-dimethylcarboxamide, trifluoroacetic acid salt], the inhibitory constant (Ki) is less than 1 nM.

Turning to `COc1ccc(S(=O)(=O)N2C(=O)C(c3cc(CN4CCN(C)CC4)ccc3OC)(N3CCC[C@H]3C(=O)N(C)C)c3cc(Cl)ccc32)c(OC)c1` (stereo partly drawn) [Example 27, (S)-1-{5-Chloro-1-(2,4-dimethoxybenzenesulfonyl)-3-[2-methoxy-5-(4-methyl-piperazin-1-ylmethyl)phenyl]-2-oxo-2,3-dihydro-1H-indol-3-yl}pyrrolidine-2-dimethylcarboxamide, trifluoroacetic acid salt], the Ki is less than 1 nM.

As for `COc1ccc(S(=O)(=O)N2C(=O)C(c3cc(CN4CCCC4)ccc3OC)(N3CCC[C@H]3C(=O)N(C)C)c3cc(Cl)ccc32)cc1` (stereo partly drawn) [Example 18, (S)-1-[5-Chloro-1-(4-methoxybenzenesulfonyl)-3-(2-methoxy-5-pyrrolidin-1-yl-methylphenyl)-2-oxo-2,3-dihydro-1H-indol-3-yl]pyrrolidine-2-dimethylcarboxamide, trifluoroacetic acid salt], the Ki is less than 1 nM.

In the case of `COc1ccc(S(=O)(=O)N2C(=O)C(c3cc(CN4CCCC4)ccc3OC)(N3CCC[C@H]3C(=O)N(C)C)c3cc(Cl)ccc32)c(OC)c1` (stereo partly drawn) [Example 25, (S)-1-[5-Chloro-1-(2,4-dimethoxybenzenesulfonyl)-3-(2-methoxy-5-pyrrolidin-1-yl-methylphenyl)-2-oxo-2,3-dihydro-1H-indol-3-yl]pyrrolidine-2-dimethylcarboxamide, trifluoroacetic acid salt], the inhibition constant (Ki) was less than 1 nM.

Turning to `COc1ccc(S(=O)(=O)N2C(=O)C(c3ccc(CNC(C)C)cc3OC)(N3CCC[C@H]3C(=O)N(C)C)c3cc(Cl)ccc32)cc1` (stereo partly drawn) [Example 94, (S)-1-[5-Chloro-3-[4-(isopropylaminomethyl)-2-methoxyphenyl]-1-(4-methoxybenzene-sulfonyl)-2-oxo-2,3-dihydro-1H-indol-3-yl]pyrrolidine-2-dimethylcarboxamide, trifluoroacetic acid salt], the Ki was less than 1 nM.

Regarding `COCCN(C)Cc1ccc(OC)c(C2(N3CCC[C@H]3C(=O)N(C)C)C(=O)N(S(=O)(=O)c3ccc(OC)cc3OC)c3ccc(Cl)cc32)c1` (stereo partly drawn) [Example 33, (S)-1-[5-Chloro-1-(2,4-dimethoxybenzenesulfonyl)-3-(2-methoxy-5-{[(2-methoxy-ethyl)methylamino]methyl}phenyl)-2-oxo-2,3-dihydro-1H-indol-3-yl]pyrrolidine-2-dimethylcarboxamide, trifluoroacetic acid salt], the Ki was less than 1 nM.

In the case of “(S)-1-[3-(4-Aminomethyl-2-methoxyphenyl)-5-chloro-1-(4-fluorobenzenesulfonyl)-2-oxo-2,3-dihydro-1H-indol-3-yl]pyrrolidine-2-dimethylcarboxamide, trifluoroacetic acid salt [Example 75]”, the Ki lay in the range of 10 to 100 nM.

`COc1ccc(S(=O)(=O)N2C(=O)C(c3ccc(CN4CCCCC4)cc3OC)(N3CCC[C@H]3C(=O)N(C)C)c3cc(Cl)ccc32)c(OC)c1` (single isomer, unassigned) [Example 8]: the inhibitory constant (Ki) fell in the range of 1 to 10 nM.

In turn, `COc1cc(CN2CCCC2)ccc1C1(N2CCC[C@H]2C(=O)N(C)C)C(=O)N(S(=O)(=O)c2ccc(F)cc2)c2ccc(Cl)cc21` (stereo partly drawn) [Example 3, (S)-1-[5-Chloro-1-(4-fluorobenzenesulfonyl)-3-(2-methoxy-4-pyrrolidin-1-ylmethyl-phenyl)-2-oxo-2,3-dihydro-1H-indol-3-yl]pyrrolidine-2-dimethylcarboxamide, trifluoroacetic acid salt] came in with a Ki of 1 to 10 nM.
